Test results reported in ChEMBL document CHEMBL1201862, “PubChem BioAssay data set” (2004).
Activity calls are given as the source filed them. For most assays here, no stated cut-off is given here; in the data, actives have a measured EC50 and inactives only a lower limit.

Legend:
[1] = target: T1, Replicative DNA helicase DnaB (Mycobacterium tuberculosis, UniProt P9WMR3); experiment: DnaB intein splicing inhibitors, dose response, biochemical, cell-free fluorescence (AID 449749); type: functional
T1 sequence (P9WMR3 whole entry): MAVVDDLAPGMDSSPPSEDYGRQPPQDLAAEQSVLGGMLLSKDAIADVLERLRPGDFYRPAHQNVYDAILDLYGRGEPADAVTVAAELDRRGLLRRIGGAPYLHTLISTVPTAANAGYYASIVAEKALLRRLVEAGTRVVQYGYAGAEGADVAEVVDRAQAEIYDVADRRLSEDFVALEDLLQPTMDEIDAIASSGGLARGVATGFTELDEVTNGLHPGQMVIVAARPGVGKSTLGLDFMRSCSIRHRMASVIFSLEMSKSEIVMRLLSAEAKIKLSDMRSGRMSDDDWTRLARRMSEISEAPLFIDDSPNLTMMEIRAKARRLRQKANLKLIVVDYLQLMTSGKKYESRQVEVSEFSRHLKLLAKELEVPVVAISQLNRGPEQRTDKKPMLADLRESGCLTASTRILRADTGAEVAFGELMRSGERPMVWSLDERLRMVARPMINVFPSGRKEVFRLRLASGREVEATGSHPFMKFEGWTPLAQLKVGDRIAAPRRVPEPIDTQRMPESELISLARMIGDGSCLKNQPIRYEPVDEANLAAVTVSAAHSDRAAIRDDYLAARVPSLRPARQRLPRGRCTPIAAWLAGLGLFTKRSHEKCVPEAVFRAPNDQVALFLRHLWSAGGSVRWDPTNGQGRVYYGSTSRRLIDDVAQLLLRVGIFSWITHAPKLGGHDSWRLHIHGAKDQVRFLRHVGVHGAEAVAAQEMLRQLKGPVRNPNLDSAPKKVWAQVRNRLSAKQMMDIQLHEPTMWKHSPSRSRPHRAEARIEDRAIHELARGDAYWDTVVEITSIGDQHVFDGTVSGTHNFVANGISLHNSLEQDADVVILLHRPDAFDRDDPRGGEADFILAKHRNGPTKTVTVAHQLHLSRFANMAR

Protein RecA = target: T2, Protein RecA (Mycobacterium tuberculosis, UniProt P9WHJ3); experiment: Fluorescence Cell-Free Homogeneous Dose Retest to Identify Inhibitors of RecA-Intein Splicing Activity. [Related pubchem assays (depositor defined):AID2097, AID2223, AID489010, AID492950]; type: functional
T2 sequence (P9WHJ3 whole entry): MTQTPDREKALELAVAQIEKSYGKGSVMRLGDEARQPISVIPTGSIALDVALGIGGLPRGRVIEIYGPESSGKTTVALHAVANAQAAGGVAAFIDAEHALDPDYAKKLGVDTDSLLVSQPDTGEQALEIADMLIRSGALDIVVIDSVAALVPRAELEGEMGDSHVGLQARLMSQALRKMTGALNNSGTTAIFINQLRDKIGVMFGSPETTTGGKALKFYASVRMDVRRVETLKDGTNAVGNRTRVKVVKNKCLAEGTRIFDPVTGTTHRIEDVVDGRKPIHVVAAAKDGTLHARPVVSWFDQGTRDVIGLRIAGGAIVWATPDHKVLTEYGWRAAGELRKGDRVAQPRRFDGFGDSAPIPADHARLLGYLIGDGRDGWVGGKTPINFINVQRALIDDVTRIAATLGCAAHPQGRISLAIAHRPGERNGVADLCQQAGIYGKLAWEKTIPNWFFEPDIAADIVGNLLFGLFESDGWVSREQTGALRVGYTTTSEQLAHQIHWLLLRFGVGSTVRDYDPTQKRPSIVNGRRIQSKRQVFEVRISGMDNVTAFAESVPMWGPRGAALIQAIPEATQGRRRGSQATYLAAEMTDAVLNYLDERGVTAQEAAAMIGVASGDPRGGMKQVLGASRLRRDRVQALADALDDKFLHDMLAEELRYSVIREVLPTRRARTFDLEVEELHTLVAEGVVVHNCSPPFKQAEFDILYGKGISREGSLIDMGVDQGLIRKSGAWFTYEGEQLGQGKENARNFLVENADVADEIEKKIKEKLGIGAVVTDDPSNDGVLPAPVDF

INS1 = experiment: beta cell apoptosis inhibitors, cytokine rescue, dose response, luminescence, retest (AID 449756); type: functional, cell-based; conditions: Rattus norvegicus;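 further: cell death triggered by IL-1 beta plus TNF-alpha plus IFN-gamma mixture; protective hits raise ATP signal compared with cytokine alone wells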
[2] = target: T3, Heat shock factor protein 1 (Mus musculus, UniProt P38532); experiment: inhibition of MG132-induced HSE-luciferase signal, confirmation, cell-based, NIH3T3, luminescence, dose retest (AID 2382); type: functional;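 further: NIH3T3 fibroblasts with HSF1-driven luciferase reporter stressed by proteasome inhibitor MG132; luminescence from HSF1-driven luciferase expression after 8 hours of MG132 stress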
T3 sequence (P38532 whole entry): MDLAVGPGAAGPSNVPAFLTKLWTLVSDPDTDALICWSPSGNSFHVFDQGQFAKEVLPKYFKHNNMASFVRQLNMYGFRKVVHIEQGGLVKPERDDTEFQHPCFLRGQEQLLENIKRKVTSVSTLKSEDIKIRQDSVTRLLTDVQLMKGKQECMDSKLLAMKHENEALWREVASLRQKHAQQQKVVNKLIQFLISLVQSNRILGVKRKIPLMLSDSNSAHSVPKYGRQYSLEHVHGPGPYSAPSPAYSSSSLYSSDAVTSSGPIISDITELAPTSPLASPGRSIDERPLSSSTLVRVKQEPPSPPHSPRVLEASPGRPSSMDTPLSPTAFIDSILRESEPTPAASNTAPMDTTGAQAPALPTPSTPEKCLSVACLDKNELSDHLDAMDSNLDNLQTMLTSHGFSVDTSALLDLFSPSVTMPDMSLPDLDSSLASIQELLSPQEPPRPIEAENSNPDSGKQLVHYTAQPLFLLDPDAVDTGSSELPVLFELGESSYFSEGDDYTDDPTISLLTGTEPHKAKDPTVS

[3] = target: T4, Calpain-2 catalytic subunit (Sus scrofa, UniProt P43367); experiment: pig calpain II inhibitor potency, dose response, biochemical, fluorogenic peptide substrate (AID 1420); type: functional
T4 sequence (P43367 whole entry): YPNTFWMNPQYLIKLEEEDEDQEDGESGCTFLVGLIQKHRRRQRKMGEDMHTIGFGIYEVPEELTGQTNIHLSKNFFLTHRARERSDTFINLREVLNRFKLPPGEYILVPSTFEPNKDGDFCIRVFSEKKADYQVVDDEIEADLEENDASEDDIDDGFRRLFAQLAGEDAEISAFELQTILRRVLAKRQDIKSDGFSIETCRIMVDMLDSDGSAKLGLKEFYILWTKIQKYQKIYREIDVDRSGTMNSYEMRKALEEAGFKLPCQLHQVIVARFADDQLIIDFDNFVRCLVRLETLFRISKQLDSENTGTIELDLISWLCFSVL

BJ [4] = experiment: cytotoxicity toward BJ-TERT fibroblasts, dose response, cell-based, RAS-independent, luminescence (AID 1933); type: functional; conditions: Homo sapiens
BJ [5] = experiment: cells; type: functional, cell-based; conditions: Homo sapiens
BJ [6] = experiment: cytotoxicity toward BJ-TERT-LT-ST fibroblasts, dose response, cell-based, RAS-independent, luminescence (AID 1935); type: functional; conditions: Homo sapiens;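 further: BJ fibroblasts immortalized with TERT plus LT and ST oncogenes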
[7] = cytotoxicity toward DRD oncogenic fibroblasts, dose response, cell-based, non-viral oncogenic, luminescence (AID 1934); type: functional; conditions: Homo sapiens
[8] = inhibitors of firefly luciferase expression or activity, dose response, H4 neuroglioma cells, luminescence (AID 1990); type: functional, cell-based
[9] = inhibitors of SNCA 5'UTR-driven reporter translation, confirmation, H4 neuroglioma cells, luminescence (AID 1988); type: functional, cell-based
[10] = microbe, parasite or virus in culture; type: functional; conditions: Mycobacterium tuberculosis
[11] = Luminescence Cell-Based Dose Retest to Confirm Inhibitors of Cancer Stem Cells. [Related pubchem assays (depositor defined):AID2717, AID2721]; type: functional; conditions: Homo sapiens
Cytochrome P450 1A2 = target: T5, Cytochrome P450 1A2 (Homo sapiens, UniProt P05177);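 further: PubChem cytochrome P450 panel assay, CYP1A2 panel member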
T5 sequence (P05177 whole entry): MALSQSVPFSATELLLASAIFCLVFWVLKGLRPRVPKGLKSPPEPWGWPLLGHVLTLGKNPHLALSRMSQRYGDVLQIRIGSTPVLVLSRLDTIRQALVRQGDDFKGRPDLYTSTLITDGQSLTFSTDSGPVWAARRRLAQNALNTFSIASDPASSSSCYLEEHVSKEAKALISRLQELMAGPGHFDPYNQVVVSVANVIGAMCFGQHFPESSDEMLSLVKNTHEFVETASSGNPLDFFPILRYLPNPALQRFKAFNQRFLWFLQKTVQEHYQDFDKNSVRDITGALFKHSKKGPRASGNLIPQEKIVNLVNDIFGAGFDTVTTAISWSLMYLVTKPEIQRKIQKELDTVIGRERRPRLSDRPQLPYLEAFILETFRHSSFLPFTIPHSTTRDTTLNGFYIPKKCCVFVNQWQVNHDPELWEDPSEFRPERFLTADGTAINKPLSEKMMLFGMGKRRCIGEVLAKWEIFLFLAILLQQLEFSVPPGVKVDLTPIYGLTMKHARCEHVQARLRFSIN

Cytochrome P450 3A4 = Cytochrome P450 3A4 (Homo sapiens, UniProt P08684);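 further: CYP3A4 tested as one member of a cytochrome P450 panel screen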
[12] = target: T3, Heat shock factor protein 1; experiment: HSF1 potentiators in luciferase reporter cells, confirmation, cell-based, NIH3T3, luminescence, dose retest (AID 435004); type: functional;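 further: stress induced by proteasome inhibitor MG132 added 30 min after compound; luciferase reporter driven by HSF1 response element in NIH3T3 cells; actives raise luminescence as potentiators of the MG132 stress response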
cells = type: functional

Sequence of Cytochrome P450 3A4 (P08684 whole entry): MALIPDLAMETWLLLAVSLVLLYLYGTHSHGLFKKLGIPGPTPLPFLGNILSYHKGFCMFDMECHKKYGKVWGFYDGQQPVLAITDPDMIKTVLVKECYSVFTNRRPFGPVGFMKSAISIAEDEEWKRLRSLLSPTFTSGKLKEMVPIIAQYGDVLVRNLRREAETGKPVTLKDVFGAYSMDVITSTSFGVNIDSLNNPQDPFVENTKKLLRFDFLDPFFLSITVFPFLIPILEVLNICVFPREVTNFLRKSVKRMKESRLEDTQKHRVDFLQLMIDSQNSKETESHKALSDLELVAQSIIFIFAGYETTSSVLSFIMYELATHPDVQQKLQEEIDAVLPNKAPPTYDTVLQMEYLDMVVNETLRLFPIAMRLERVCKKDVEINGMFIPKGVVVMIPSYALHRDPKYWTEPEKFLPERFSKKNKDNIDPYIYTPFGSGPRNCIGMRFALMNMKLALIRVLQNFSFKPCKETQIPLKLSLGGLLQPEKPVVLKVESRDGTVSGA

## COC(=O)c1c(C)oc2ccc(N(C(=O)c3ccncc3)S(=O)(=O)c3ccc(C)cc3C)cc12
[1]
  AC50: 2.27 µM (active)
Protein RecA
  EC50: 10.9 µM (active)
INS1
  AC50: 3.85 µM (active)

## CCCc1n[nH]c2c1C(c1ccc(O)cc1OCC)C(C#N)=C(N)O2 (configuration not stated)
[1]
  AC50: 40.3 µM (active)
Protein RecA
  EC50: 4.6 µM (active)

## COC(=O)Nc1sccc1C(=O)Nc1sccc1C(=O)OC
[2]
  EC50: > 195 µM (not active)

## Cc1ccc(NS(=O)(=O)c2cc(C(=O)NCCSC3CCCCC3)ccc2C)cc1
[3]
  IC50: > 50 µM (not active)

## COc1ccc(-c2noc(N3CCC(C(=O)NCCCN4CC(C)CC(C)C4)CC3)n2)cc1 (configuration not stated)
[2]
  EC50: > 195 µM (not active)

## CCOC(=O)c1c(C)[nH]c(C2=NN=C(Nc3cccc(Cl)c3)SC2)c1C
[2]
  EC50: 25.3 µM (active)

## CC(=O)Nc1cccc(C(=O)/C=C/c2ccc(/C=C/C(=O)c3cccc(NC(C)=O)c3)cc2)c1
BJ [4]
  EC50: 5.89 µM (inconclusive)
BJ [5]
  EC50: > 150 µM (not active)
BJ [6]
  EC50: 3.93 µM (inconclusive)
[7]
  EC50: 5.45 µM (inconclusive)

## CC(=C/C(=O)O)/C(=C/c1ccccc1)C(=O)O
[3]
  IC50: < 0.4 µM (not active)

## S=C(c1ccc(N2CCCC2)cc1)N1CCCCC1
[3]
  IC50: 12.1 µM (active)

## CCOc1ccc(NC(=O)CN(C)C(=O)c2ccc(N3CCCC3)c([N+](=O)[O-])c2)cc1OCC
[2]
  EC50: > 195 µM (not active)

## COc1ccc(CCNC(=O)CC2(CC3=NS(=O)(=O)c4ccccc4N3)CCCC2)cc1OC
[8]
  EC50: 18.8 µM (active)
[9]
  EC50: > 120 µM (not active)

## C/C(CC(=O)Nc1cc(C)ccn1)=N\NC(=O)c1cccc(F)c1
[1]
  AC50: 18.7 µM (active)
Protein RecA
  EC50: 8.06 µM (active)

## CC1(C)C=C(c2ccc(C=O)s2)CC(C)(C)N1C=O
[2]
  EC50: > 195 µM (not active)

## COc1ccc(N/N=C(\C#N)C(=N)SCc2ccccc2)cc1
[1]
  AC50: 3.6 µM (active)
Protein RecA
  EC50: 8.67 µM (active)

## Cc1cccc(NC(=O)CSc2nnc(CNC(=O)c3cccs3)o2)c1C
[3]
  IC50: 7.44 µM (not active)

## Oc1ccc(Nc2nc(-c3ccc4ccccc4c3)cs2)cc1
[10]
  CC50: 17.1 µM (active)
[11]
  AC50: 5.31 µM (active)
[1]
  AC50: 67.6 µM (active)
Protein RecA
  EC50: 7.3 µM (active)
INS1
  AC50: 16.6 µM (active)

## Cc1[nH]n(-c2ccccc2)c(=O)c1N=Nc1ccc2c(c1)OCO2
[2]
  EC50: > 195 µM (not active)

## S=C(Nc1ccccc1Oc1ccccc1)Nc1cccc(Cl)c1Cl
[3]
  IC50: 12.7 µM (not active)

## CC(O)c1nc2ccccc2n1Cc1nnc(-c2ccc(Cl)cc2)o1 (configuration not stated)
[2]
  EC50: > 195 µM (not active)

## COc1ccc2nc(-c3cccc(F)c3)cc(O)c2c1
BJ [4]
  EC50: 1.24 µM (active)
BJ [5]
  EC50: 1.41 µM (inconclusive)
BJ [6]
  EC50: 0.885 µM (active)
[7]
  EC50: 2.39 µM (inconclusive)

## CCOC(=O)Cn1c(=O)cc(C)c2cccc(C)c21
[3]
  IC50: < 0.4 µM (not active)

## Cc1cccc(NC(=O)c2cc3c(=O)n4ccccc4nc3n(CC(C)C)c2=N)c1
[3]
  IC50: > 50 µM (not active)

## CC(=O)N1CC2(c3ccccc3)CN(C(C)=O)CC(c3ccccc3)(C1)C2=O
[1]
  AC50: > 380 µM (inactive)
Protein RecA
  EC50: > 380 µM (inactive)

## CN(Cc1ccc(Cl)cc1)C(=O)CCl
[1]
  AC50: 21.8 µM (active)
Protein RecA
  EC50: 2.61 µM (active)

## C#CCSc1nnc(-c2sc3ccccc3c2Cl)o1
[3]
  IC50: > 50 µM (not active)
Cytochrome P450 1A2
  AC50: 0.126 µM (inconclusive)
Cytochrome P450 3A4
  AC50: 8.91 µM (inconclusive)

## CC(C)(C)OC(=O)C1C(=O)CC(C)(O)C(C(=O)OC(C)(C)C)C1c1cccnc1 (configuration not stated)
[2]
  EC50: > 195 µM (not active)

## O=C(NCCc1ccccn1)c1ccc(OC(F)F)cc1
[3]
  IC50: < 0.4 µM (not active)

## O=c1ccc2ccc(Oc3ccc(Cl)cc3[N+](=O)[O-])cc2o1
[3]
  IC50: < 0.4 µM (not active)

## CSC(=N/c1cc(Cl)ccc1Cl)/C(C#N)=C(/O)c1ccco1
[10]
  CC50: 37.1 µM (active)
[12]
  EC50: 11.2 µM (active)
cells
  IC50: 7.46 µM (active)
[1]
  AC50: 2.51 µM (active)
Protein RecA
  EC50: 0.912 µM (active)

## CC(=O)Oc1cc2c(cc1Cl)C1(CC(c3ccccc3Cl)O2)CC(C)(C)N=C(S)N1 (configuration not stated)
[1]
  AC50: 4.22 µM (active)
Protein RecA
  EC50: 14.1 µM (active)

## CC(C)CC(=O)NC(NC(=O)CC(C)C)c1cccc([N+](=O)[O-])c1
[2]
  EC50: > 195 µM (not active)

## Fc1ccc(Cc2nnc(-c3cccs3)o2)cc1
[2]
  EC50: > 195 µM (not active)
